From article PMC6877482, “Inhibition of AMD-Like Pathology With a Neurotrophic Compound in Aged Rats and 3xTg-AD Mice” (Frontiers in Aging Neuroscience, 2019)

Columns and labels:
[1] = system: total tau, phosphorylated tau, Aβ/APP; test: Tau and Aβ pathologies, immunofluorescence in retina of aged rats; assay type: in vivo, rat; details: aged Fisher rats, 500 nmoles/kg/day by gavage for 3 months; qualitative, not quantified, 2-3 animals/group
Description: (§1) Female aged (19–21 months) Fisher rats (n = 7) were given P021 per os by gavage (10 ml/kg body weight) once a day for 88 days. […] To be able to deliver the same constant dose to each animal, we chose gavage. Furthermore, the administration of P021 by gavage is more economical than by drinking water. As controls, the second group of aged (19–21 months) female rats (n = 7) and a group of young adult female rats (2–3 months, n = 7) were treated identically, but with normal saline (vehicle) only (Figure 1A). Administration of vehicle and test compound was done at 7–9 AM daily and blindly to the investigators who collected, processed, and analyzed the tissue.
(§2) The animals were anesthetized by using an overdose of avertin and then were transcardially perfused by using 0.1 M phosphate-buffered saline (PBS). […]
(§3) Paraffin sections were deparaffinized, rehydrated, and subjected to antigen retrieval by boiling for 20 min in 10 mM sodium citrate solution (pH 6.0). […] The area to be analyzed was selected, converted to grayscale, and thresholded using Yen’s arithmetic, and the area percentage of positive staining was measured for each section by using the NIH ImageJ software package. The staining area was quantified from two to three sections of each eye and averaged (n = 5–7 animals per group).

[2] = system: GFAP; test: Astrogliosis, GFAP immunofluorescence in retina of 3xTg-AD mice; assay type: in vivo, mouse; details: female 3xTg-AD mice, 60 nmoles P021/g feed from 3 to 21 months of age
Description: (§4) At approximately 3 months of age, the female wild type and 3xTg-AD mice were divided into five groups (n = 6–7 mice per group; Figure 3A): (1) wild type mice, age 3 months, without treatment (WT-3 m); (2) 3xTg-AD mice, age 3 months, without treatment (3xTg-3 m); (3) wild type mice, age 3 months, treated with vehicle feed without P021 until the age of 21 months (WT-21 m/Veh); (4) 3xTg-AD-mice, age 3 months, treated with vehicle feed without P021 until the age of 21 months (3xTg-21 m/Veh); and (5) 3xTg-AD-mice, age 3 months, treated with 60 nmol P021/g feed till the age of 21 months (3xTg-21 m/P021). The first two groups, WT-3 m and 3xTg-AD-3 m, were the starting points and were employed as controls to study age-associated AMD-like changes in WT-21 m and 3xTg-AD-21 m, respectively. We included WT-21 m/Veh as another reference group to enable a comparison of AMD-like changes in 3xTg-21 m/Veh with age-matched WT animals. […] P021 was formulated in the feed by Research Diets (New Brunswick, NJ, USA). Food consumption and body weight were recorded every 2 weeks and every month, respectively. The average mouse food consumption was ~2.7 g feed/day. The analysis of the animals was carried out blind to the treatment.
as §2, §3

[3] = system: RPE and BM of 3xTg-AD mice; test: RPE and BM pathology (H & E, auto-fluorescence deposits) in aged 3xTg-AD mice; assay type: in vivo, mouse; details: female 3xTg-AD mice, 60 nmoles P021/g feed from 3 to 21 months of age
Description: (§5) At approximately 3 months of age, the female wild type and 3xTg-AD mice were divided into five groups (n = 6–7 mice per group; Figure 3A): (1) wild type mice, age 3 months, without treatment (WT-3 m); (2) 3xTg-AD mice, age 3 months, without treatment (3xTg-3 m); (3) wild type mice, age 3 months, treated with vehicle feed without P021 until the age of 21 months (WT-21 m/Veh); (4) 3xTg-AD-mice, age 3 months, treated with vehicle feed without P021 until the age of 21 months (3xTg-21 m/Veh); and (5) 3xTg-AD-mice, age 3 months, treated with 60 nmol P021/g feed till the age of 21 months (3xTg-21 m/P021). The first two groups, WT-3 m and 3xTg-AD-3 m, were the starting points and were employed as controls to study age-associated AMD-like changes in WT-21 m and 3xTg-AD-21 m, respectively. […] Food consumption and body weight were recorded every 2 weeks and every month, respectively. […]
Every 25th retinal section was deparaffinized and subjected to hematoxylin and eosin (H & E) staining to evaluate the morphology. […] The thicknesses of the ONL and INL of the central and peripheral retina in each group (every 25th section from the optic nerve head, 2–3 sections per rat or mouse, n = 3–7 rats per group; n = 5–6 mice per group) were measured and quantified by using the ImageJ/NIH image analysis system. […]

[4] = system: Iba-1; test: Microgliosis, Iba-1 immunofluorescence in retina of 3xTg-AD mice; assay type: in vivo, mouse; details: female 3xTg-AD mice, 60 nmoles P021/g feed from 3 to 21 months of age
Description: as §5, §3

[5] = system: total tau, phosphorylated tau, Aβ/APP; test: Tau and Aβ pathologies, immunofluorescence in retina of aged 3xTg-AD mice; assay type: in vivo, mouse; details: 60 nmoles P021/g feed from 3 to 21 months of age, qualitative, not quantified, 2-3 animals/group
Description: as §5, §3

[6] = system: GFAP; test: Astrogliosis, GFAP immunofluorescence in retina of aged rats; assay type: in vivo, rat; details: female Fisher rats ~19-21 months, 500 nmoles/kg/day by gavage for 3 months; n = 6-7 rats; vs 22-24 m/Veh
Description: as §1, §2, §3

[7] = system: VEGF; test: VEGF immunofluorescence in retina and optic nerve of aged 3xTg-AD mice; assay type: in vivo, mouse; details: 60 nmoles P021/g feed from 3 to 21 months of age, qualitative, 2-3 animals/group
Description: as §5, §3

[8] = system: RPE of aged Fisher rats; test: RPE and BM pathology (H & E, auto-fluorescence deposits) in aged rats; assay type: in vivo, rat; details: female Fisher rats ~19-21 months, 500 nmoles/kg/day by gavage for 3 months
Description: as §1, §2
Every 25th retinal section was deparaffinized and subjected to hematoxylin and eosin (H & E) staining to evaluate the morphology. […] Because there is no significant difference between the 1/5th to the 1/3rd of the retina from the optic nerve head and the most peripheral part, we chose the 1/5th position of the retina from the optic nerve to the most peripheral part of the retina as the “central,” and the most peripheral part of the retina as “peripheral.” Rows of the outer nuclear layer (ONL) and the inner nuclear layer (INL) of the retina in each group (every 25th section, 3–5 sections per rat or mouse, n = 5–7 rats per group; n = 5–6 mice per group) were manually counted in three columns per image by using a 40× or, where necessary, a higher magnification objective. The thicknesses of the ONL and INL of the central and peripheral retina in each group (every 25th section from the optic nerve head, 2–3 sections per rat or mouse, n = 3–7 rats per group; n = 5–6 mice per group) were measured and quantified by using the ImageJ/NIH image analysis system. […]

[9] = system: retina of 3xTg-AD mice; test: Retinal morphology (H & E, rows and thickness of ONL and INL) in aged 3xTg-AD mice; assay type: in vivo, mouse; details: female 3xTg-AD mice, 60 nmoles P021/g feed from 3 to 21 months of age
Description: as §4
(§6) The animals were anesthetized by using an overdose of avertin and then were transcardially perfused by using 0.1 M phosphate-buffered saline (PBS). Eyeballs were dissected out from the carcasses, immersion-fixed for 24 h in 4% paraformaldehyde at 4°C, and then transferred to 70% alcohol for storage; in the case of mice, the eyeballs were prefixed by injecting 4% paraformaldehyde, followed by removal from the carcasses and immersion fixation as above. After the cornea and lens of the left eyes were removed, the remaining eye cup was embedded in paraffin, with the orientation parallel to the optic nerve in longitudinal position. In all cases, 5-μm serial sections were cut by using a rotary microtome and were mounted on Superfrost Plus slides. Processing and analysis of the retinal tissue were conducted blind.
(§7) Every 25th retinal section was deparaffinized and subjected to hematoxylin and eosin (H & E) staining to evaluate the morphology. The H & E staining images were captured with a light microscope using 2×, 40×, and 100× objective lenses. Because there is no significant difference between the 1/5th to the 1/3rd of the retina from the optic nerve head and the most peripheral part, we chose the 1/5th position of the retina from the optic nerve to the most peripheral part of the retina as the “central,” and the most peripheral part of the retina as “peripheral.” Rows of the outer nuclear layer (ONL) and the inner nuclear layer (INL) of the retina in each group (every 25th section, 3–5 sections per rat or mouse, n = 5–7 rats per group; n = 5–6 mice per group) were manually counted in three columns per image by using a 40× or, where necessary, a higher magnification objective. The thicknesses of the ONL and INL of the central and peripheral retina in each group (every 25th section from the optic nerve head, 2–3 sections per rat or mouse, n = 3–7 rats per group; n = 5–6 mice per group) were measured and quantified by using the ImageJ/NIH image analysis system. Processing and analysis of the retinal tissue and the data were conducted blind to the genotypes and the treatment of the animals.

[10] = method not given, block ends with ref Kazim et al., 2014, cited from earlier work
Description: P021 is quite stable in artificial gastric juice (~90% for 30 min) and in artificial intestinal juice (>95% for 120 min).

[11] = system: retina of aged Fisher rats; test: Retinal morphology (H & E, rows and thickness of ONL and INL) in aged rats; assay type: in vivo, rat; details: female Fisher rats ~19-21 months, 500 nmoles/kg/day by gavage for 3 months
Description: as §1, §6, §7

[12] = system: aged rats and mice; details: chronic oral treatment in aged rats and mice, earlier study; ref Kazim et al., 2014; cited from earlier work
Description: At as early as 12 months of age, OXYS rats and Wistar rats are known to show AMD-like pathology, such as BM thickening and lipofuscin accumulation (Neroev et al., [2008]; Markovets et al., [2011]). […] Here, to assess the AMD-like retinal pathology induced by aging and to study the effect of P021 on the p ...

[13] = system: Iba-1; test: Microgliosis, Iba-1 immunofluorescence in retina of aged rats; assay type: in vivo, rat; details: female Fisher rats ~19-21 months, 500 nmoles/kg/day by gavage for 3 months
Description: as §1, §2, §3

[14] = commercial service (APREDICA, Watertown, MA, USA); ref Kazim et al., 2014; cited from earlier work

## Ac-DGGL^AG-NH2 [P021]
[1]
  tau and Aβ pathologies in the retina (R134d, PHF-1, AT8, 4G8, Aβ immunofluorescence): prevented the trend in the increase in tau and Aβ pathologies
[2]
  distribution of GFAP-positive staining in the retina: limited to the NFL and GCL
[2]; n = 3-6 mice, similar trend, large standard error
  area percentage of GFAP in the peripheral retina, changes between groups: did not reach statistical significance
[2]; n = 5-6 mice, vs 3xTg-21 m/Veh
  area percentage of GFAP from the NFL to the ONL in the central retina: reduced by P021 treatment to the levels in WT-3 m/Veh and 3xTg-3 m/Veh mice
[3]; H & E
  thickening of the BM: no BM thickening
[3]; auto-fluorescence λex = 543, n = 5 mice, vs 3xTg-21 m/Veh
  number of deposits between the RPE and Cho: significantly reduced
[4]
  distribution of Iba-1-positive staining in the central retina: only observed in the GCL
[4]; NFL to ONL, n = 3-6 mice, vs 3xTg-21 m/Veh
  area percentage of Iba-1 immunostaining in the peripheral retina: decreased in 3xTg-21 m/P021 mice to the levels in WT-3 m/Veh and 3xTg-3 m/Veh mice
[5]
  tau and Aβ pathologies in the retina (R134d, PHF-1, AT8, 4G8, Aβ immunofluorescence): prevented the trend in the increase in tau and Aβ pathologies
[6]
  GFAP staining in central and peripheral retinas: reduced very much
[7]
  VEGF staining in the optic nerve: the size of the staining patch was decreased
  localization of VEGF-positive spots in the retina: limited mainly to the GCL to the IPL
[8]; H & E
  arrangement of apical microvilli (AM) in RPE: showed improvement in the arrangement of AM
  vacuolation and atrophy of RPE: no apparent abnormalities were observed
[8]; auto-fluorescence λex = 543, n = 7 rats, vs 22-24 m/Veh
  lipofuscin granules and deposition number between RPE and Cho: markedly decreased
[9]; H & E
  extension of ONL nuclei across the OPL or into the INL, central retina: this pathology was prevented
[9]; vs 3xTg-21 m/Veh, H & E
  prevention of changes in rows and thickness of INL in the peripheral retina: did not reach significance
  rows and thickness of INL in the central retina: prevented these changes
  rows and thickness of ONL in the central retina: these changes in the central retina were prevented
  rows and thickness of ONL in the peripheral retina: showed a trend to rescue these changes
[9]; vs 3xTg-21 m/Veh, obvious trend
  rescue of INL thickness in the central retina: did not reach statistical significance
[10]; 30 min
  stability in artificial gastric juice: ~ 90%
[10]; 120 min
  stability in artificial intestinal juice: > 95%
[11]
  outer retinal folds and rosette-like structures in the central retina: No abnormal structure like this was observed
  rows and thickness of INL in the central retina: no detectable effect
[11]; vs 22-24 m/Veh
  rows and thickness of ONL, central and peripheral retina: prevented these pathological changes more effectively in the central retina
  rows of INL in the peripheral retina: showed a clear trend to rescue the number of rows
[12]
  general physical state / side effects: did not observe any worsening in general physical state
[13]; especially central retina
  localization of Iba-1-positive microglial cells in the retina: no staining was found from the ONL to the OS
[13]; n = 6-7 rats, vs 22-24 m/Veh
  relative Iba-1 immunostaining from the NFL to the OS, central and peripheral retinas: dramatically reduced
[14]
  BBB crossing: a sufficient amount of P021 crossed the BBB
